Assay results published in patent US9156828B2, “Tricyclic amidine derivatives as HIV attachment inhibitors” (priority 2012, dated 2015).
pEC50: −log10 of the molar value. Like-named read-outs stand apart in the source and are kept apart here.

Tested on: HIV-1 LAI envelope single-round infectious reporter virus
Assay: Single-round infectious HIV-1 LAI luciferase reporter virus infection of MT2 cells
Format: cell-based
Settings: Human immunodeficiency virus 1, MT2, 72 h
Source text: Virus Production— • Human embryonic Kidney cell line, 293T (HEK 293T), was propagated in Dulbecco's Modified Eagle Medium (Invitrogen, Carlsbad, Calif.) containing 10% fetal bovine serum (FBS, Sigma, St. Louis, Mo.). The human T-cell leukemia cell MT2 (AIDS Research and Reference Reagent Program, Cat. 237) was propagated in RPMI 1640 (Invitrogen, Carlsbad, Calif.) containing 10% fetal bovine serum (FBS, Hyclone, Logan, Utah)
Virus Infection— • Single-round infectious reporter virus was produced by co-transfecting HEK 293T cells with plasmide expressing the HIV-1 LAI envelope along with a plasmid containing an HIV-1 LAI proviral cDNA with the envelope gene replaced by a firefly luciferase reporter gene (Chen et al., Ref 41). Transfections were performed using lipofectAMINE PLUS reagent as described by the manufacturer (Invitrogen, Carlsbad, Calif.). Experimental Procedure • 1. MT2 cells were plated in black, 384 well plates at a cell density of 5×10^3 cells per well in […] RPMI 1640 containing 10% FBS. • 2. Compound (diluted in dimethylsulfoxide and growth medium) was added to cells at 12.5 μl/well, so that the final assay concentration would be […]. • 3. 12.5 μl of single-round infectious reporter virus in Dulbecco's Modified Eagle Medium was added to the plated cells and compound at an approximate multiplicity of infection (MOI) of 0.01, resulting in a final volume of 50 μl per well. • 4. Virus-infected cells were incubated at 37 degrees Celsius in a CO2 incubator and harvested 72 h after infection. • 5. Viral infection was monitored by measuring luciferase expression in the infected cells using a luciferase reporter gene assay kit (Steady-Glo, Promega, Madison, Wis.) as described by the manufacturer. Luciferase activity was then quantified by measuring luminescence using an EnVision Multilabel Plate Readers (PerkinElmer, Waltham, Mass.). • 6. The percent inhibition for each compound was calculated by quantifying the level of luciferase expression in cells infected in the presence of each compound as a percentage of that observed for cells infected in the absence of compound and subtracting such a determined value from 100. • 7. An EC50 provides a method for comparing the antiviral potency of the compounds herein. The effective concentration for fifty percent inhibition (EC50) was calculated with the Microsoft Excel Xlfit curve fitting software. For each compound, curves were generated from percent inhibition calculated at 10 different concentrations by using a four parameter logistic model (model 205). Table 1 is the key for the data in Table 2.

[1] = read-out: EC50 Group from Table 1

Row | SMILES | pEC50 | pEC50 [1]
1 | O=C(C(=O)N1CCN(C2=Nc3ccccc3Oc3ccc(Cl)cc32)CC1)c1c[nH]c2ccccc12 [Compound 1001] | 6.15 | < 6.30
2 | O=C(C(=O)N1CCN(C2=Nc3cc(Cl)ccc3Nc3ccccc32)CC1)c1c[nH]c2ccccc12 [Compound 1002] | – | < 6.30
3 | COc1cnc(-n2cncn2)c2[nH]cc(C(=O)C(=O)N3CCN(C4=Nc5ccccc5Oc5ccc(Cl)cc54)CC3)c12 [Compound 1003] | – | > 6.30
4 | O=C(C(=O)N1CCN(C2=Nc3ccccc3Oc3ccc(Cl)cc32)CC1)c1c[nH]c2c(Br)ccc(F)c12 [Compound 1004] | – | < 6.30
5 | COc1cnc(-n2cnc(C)n2)c2[nH]cc(C(=O)C(=O)N3CCN(C4=Nc5ccccc5Oc5ccc(Cl)cc54)CC3)c12 [Compound 1005] | 8.74 | > 6.30
6 | COc1cnc(-n2cnc(C)n2)c2[nH]cc(C(=O)C(=O)N3CCN(C4=Nc5cc(Cl)ccc5Nc5ccccc54)CC3)c12 [Compound 1006] | – | > 6.30
